Experiments:
[1] = Complex formation of labeled antibodies with labeled Abraxane nanoparticles, flow cytometry; type: binding; settings: fluorescently labeled antibody and nanoparticles
Method: Three therapeutic monoclonal antibodies (bevacizumab, trastuzamab, and rituxan) were fluorescently labeled and incubated with fluorescently labeled Abraxane® nanoparticles. The particles were spun down, washed, and visualized by flow cytometry.

[2] = Bevacizumab incubated with free paclitaxel, Western blot with anti-paclitaxel antibody; type: binding; settings: 4 mg bevacizumab, paclitaxel 0.1-2 mg, 30 minutes room temperature
Method: The following was performed to determine if bevacizumab binds free paclitaxel. 4 mg of bevacizumab was incubated with paclitaxel (0.1, 0.5, 1, or 2 mg) for 30 minutes at room temperature.

| Substance | complex formation with Abraxane nanoparticles [1] | binding of free paclitaxel [2] |
| --- | --- | --- |
| bevacizumab: Humanized monoclonal antibody that binds to vascular endothelial growth factor A | spontaneously formed complexes | did not bind |
| rituxan: Therapeutic monoclonal antibody | spontaneously formed complexes | – |
